Data: patent publication US11413278B2, “Compounds and methods for promoting stress resistance” (priority 2015, dated 2022)
Read-outs that look alike come from different tables or passages of the source.

How the values were obtained:
WI-38 cells [1] = experiment: Long-term effects on cell viability (5 days, ATP; morphology, PI imaging); format: cell-based; conditions: 10 μM; for O = Potential toxicity / Q = Potential toxicity: human, 5 days; for Luminescence signal for ATP measurement, day-1 Average / Luminescence signal for ATP measurement, day-2 Average / Luminescence signal for ATP measurement, day-3 Average / Luminescence signal for ATP measurement, day-4 Average / Luminescence signal for ATP measurement, day-5 Average / viability at 10 µM: Batch 1; for Luminescence signal for ATP measurement, day-1 Average / Luminescence signal for ATP measurement, day-2 Average / Luminescence signal for ATP measurement, day-3 Average / Luminescence signal for ATP measurement, day-4 Average / Luminescence signal for ATP measurement, day-5 Average: n = 6, day-0 luminescence = 320956 ± 24708; for viability at 10 µM: Homo sapiens, WI-38, 120 h, DMSO ctrl = 100.0%, read-out: ATP luminescence by day-5 normalized; for Luminescence signal for ATP measurement, day-5 Average / viability at 10 µM: day-5;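 as to Luminescence signal for ATP measurement, day-2 Average: compounds at 10 µM with ATP read daily over 5 days of treatment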;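 as to Luminescence signal for ATP measurement, day-3 Average: compounds at 10 µM with ATP read daily over 5 days of treatment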;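 as to Luminescence signal for ATP measurement, day-4 Average: compounds at 10 µM with ATP read daily over 5 days of treatment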;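 as to Luminescence signal for ATP measurement, day-5 Average: compounds at 10 µM with ATP read daily over 5 days of treatment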
[2] = Summary score for characterization of 38 core set hits; conditions: for D = Triple resistant: 2-point score, multiplex resistance (cadmium, MMS, H2O2); for C = H2O2- & Cd-resistant: score, resistance to both H2O2 and cadmium
Summary of the method: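 First, H2O2-resistance screen hits were characterized for longevity-related phenotypes, and each major one (multiplex resistance, FOXO3/NRF2 activation, mTOR down-regulation) received 2 points. Next, C. elegans lifespan extension was scored 0 to 2 from 4 to 6 trials. Finally, human-cell genotoxicity or toxicity subtracted a point.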

LC3A/B puncta = experiment: Autophagy induction analysis (LC3A/B puncta immuno-staining); format: cell-based, human
Summary of the method: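 Read-out is LC3A/B puncta intensity per DAPI-positive nucleus, either total puncta (Exp. 1) or puncta colocalizing with LAMP2 lysosomes (Exp. 2). Cells were WI-38, exposed to compounds for 24 hrs before antibody staining overnight at 4° C and automated imaging.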

[3] = system: phosphorylated γH2A.X and TP53BP1; experiment: DNA damage marker analysis (immuno-staining); conditions: for activity at 10 µM: Homo sapiens, WI-38, 24 h
Summary of the method: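 Immunofluorescence read-out for phospho-γH2A.X (Ser-139) and phospho-TP53BP1 (Ser-1778), with DAPI nuclear stain and automated imaging at 10×. WI-38 cells (~8,000 per well) were exposed to small molecules for 24 h after 24 h of culture, with doxorubicin (300 nM, 24 h) or H2O2 (700 μM, 3 h) as positive damage controls.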

WI-38 cells [4] = experiment: Propidium iodide (PI) cell-death imaging upon H2O2 stress; format: cell-based, human; conditions: for Assay 7: H2O2-resistant, at 10 uM, validated by propidium iodide (PI) cell-death imaging: w/H2O2, 3 hrs/4 hrs/5 hrs, YES/NO; for cytotoxicity at 10 µM: Homo sapiens, WI-38
[5] = system: human dermal fibroblast (HDF) primary cells; experiment: H2O2-resistance in primary human dermal fibroblasts; format: cell-based; conditions: for fold induction at 10 µM: Homo sapiens; for Assay 6: H2O2-resistant, at 10 uM, human dermal fibroblast (HDF) primary cells: YES/NO
[6] = read-out: Experiment 1, H2A.X-P DNA damage foci staining (no H2O2 stress treatment), at 10 uM
[7] = read-out: Experiment 2, H2A.X-P DNA damage foci staining (no H2O2 stress treatment), at 10 uM
[8] = read-out: Experiment 2, H2A.X-P DNA damage foci staining (under H2O2 stress treatment), at 10 uM
[9] = read-out: Experiment 2, TP53BP1-P DNA damage foci staining (no H2O2 stress treatment), at 10 uM
[10] = read-out: Experiment 2, TP53BP1-P DNA damage foci staining (under H2O2 stress treatment), at 10 uM
[11] = negative point, cultured human cells
[12] = H2O2 3 hrs, 10 uM, n = 6, negative control 5.44% ± 0.79%, read-out: Percentage of propidium iodide-positive dead cells (under H2O2 stress treatment), 3 hrs
[13] = pre-treatment at 10 uM, 3.5 hours of H2O2, DMSO control 27.4% ± 6.5%, */**/*** = reduced by one/two/three standard deviations, read-out: Percentage of propidium iodide-positive dead cells (under H2O2 stress treatment), at 10 uM
[14] = Experiment 1, HDF cells, read-out: Experiment 1, HDF cells (under H2O2 stress treatment), at 10 uM (fold change)
[15] = Experiment 2, HDF cells, read-out: Experiment 2, HDF cells (under H2O2 stress treatment), at 10 uM (fold change)
[16] = H2O2 4 hrs, 10 uM, n = 6, negative control 16.81% ± 1.42%, read-out: Percentage of propidium iodide-positive dead cells (under H2O2 stress treatment), 4 hrs

Row | Structure (SMILES) | O = Potential toxicity (WI-38 cells [1]) | Q = Potential toxicity (WI-38 cells [1]) | D = Triple resistant [2] | C = H2O2- & Cd-resistant [2] | H = Potential Autophagy Induction (LC3A/B puncta; score) | H = Potential Autophagy Induction (LC3A/B puncta; summary score) | activity at 10 µM [3, 6] | activity at 10 µM [3, 7] | activity at 10 µM [3, 8] | activity at 10 µM [3, 9] | activity at 10 µM [3, 10] | Assay 7: H2O2-resistant, at 10 uM, validated by propidium iodide (PI) cell-death imaging (WI-38 cells [4]; 10 uM) | cytotoxicity at 10 µM (WI-38 cells [4]; [12]) | cytotoxicity at 10 µM (WI-38 cells [4]; [13]) | fold induction at 10 µM [5, 14] | fold induction at 10 µM [5, 15] | Assay 6: H2O2-resistant, at 10 uM, human dermal fibroblast (HDF) primary cells [5] | Luminescence signal for ATP measurement, day-1 Average (WI-38 cells [1]) | Luminescence signal for ATP measurement, day-2 Average (WI-38 cells [1]) | Luminescence signal for ATP measurement, day-3 Average (WI-38 cells [1]) | also measured
1 | COc1ccc(C(=O)/C=C/c2ccccc2Br)c(OC)c1 [Gr-4B] | 0 | 0 | 0 | 1 | 0 | 0 | 116% | 140% | 150% | 118% | 435% | YES | 3.31% | 3.4% | 13.7 | 55.6 | YES |  |  |  | S = Sum of Negative scores ([2]; sum of columns Q and R): 0; R = Potential DNA damaging [3, 11]: 0; P = Potential DNA-damaging ([3]; summary score): 0
2 | COc1ccc(C(=O)/C=C/c2cccc(Cl)c2)c(OC)c1 [Gr-4C] | 0 | 0 | 0 | 0 | 0 | 0 | 108% | 135% | 150% | 179% | 444% | YES | 4.02% | 17.4% | 4.32 | 3.15 | YES | 413360 | 474171 | 485641 | Luminescence signal for ATP measurement, day-4 Average (WI-38 cells [1]): 769380; Luminescence signal for ATP measurement, day-5 Average (WI-38 cells [1]): 813018; viability at 10 µM (WI-38 cells [1]): 79.2%; S = Sum of Negative scores ([2]; sum of columns Q and R): 0; R = Potential DNA damaging [3, 11]: 0; P = Potential DNA-damaging ([3]; summary score): 0; cytotoxicity at 10 µM (WI-38 cells [4]; [16]): 6.21%
3 | O=C(/C(=C/c1ccc(Cl)cc1)c1nc2ccccc2[nH]1)c1ccccc1 [Gr-4D] | 0 | 0 | 0 | 1 | 0 | 0 | 103% | 49.6% | 123% | 136% | 388% | YES | 1.58% | 19.8% | 1.06 | 2 | YES |  |  |  | S = Sum of Negative scores ([2]; human): 0; P = Potential DNA-damaging ([3]; human, 24 h): 0; R = Potential DNA damaging ([3]; human, 24 h): 0; cytotoxicity at 10 µM (WI-38 cells [4]; [16]): 7.44%
4 | CCc1ccc(Oc2nc3ccccn3c(=O)c2/C=C(\C#N)C(=O)NC2CCCCC2)cc1 [Gr-5A] | 0 | 0 | 0 | 1 | 0 | 0 | 105% | 115% | 127% | 147% | 548% | YES | 1.64% | 3.7% | 2.95 | 2 | YES | 527000 | 728148 | 837593 | Luminescence signal for ATP measurement, day-4 Average (WI-38 cells [1]): 1074220; Luminescence signal for ATP measurement, day-5 Average (WI-38 cells [1]): 1082445; viability at 10 µM (WI-38 cells [1]): 105%; S = Sum of Negative scores ([2]; human): 0; P = Potential DNA-damaging ([3]; human, 24 h): 0; R = Potential DNA damaging ([3]; human, 24 h): 0; cytotoxicity at 10 µM (WI-38 cells [4]; [16]): 8.97%
5 | CCc1ccc(Oc2nc3ccccn3c(=O)c2/C=C(\C#N)C(=O)NCc2ccco2)cc1 [Gr-5B] | 0 | 0 | 0 | 0 | 0 | 0 | 100% | 128% | 168% | 223% | 540% | YES | 1.18% | 6.1% | 9.16 | 13.3 | YES | 529430 | 736318 | 867160 | Luminescence signal for ATP measurement, day-4 Average (WI-38 cells [1]): 1091073; Luminescence signal for ATP measurement, day-5 Average (WI-38 cells [1]): 1104305; viability at 10 µM (WI-38 cells [1]): 108%; S = Sum of Negative scores ([2]; human): 0; P = Potential DNA-damaging ([3]; human, 24 h): 0; R = Potential DNA damaging ([3]; human, 24 h): 0; cytotoxicity at 10 µM (WI-38 cells [4]; [16]): 6.19%
6 | CNC(=O)/C(C#N)=C/c1c(Oc2ccc(C(C)(C)C)cc2)nc2ccccn2c1=O [Gr-5D] | 0 | 0 | 0 | 0 | 0 | 0 | 94.1% | 75% | 112% | 145% | 480% | YES | 3.28% | 6.4% | 0.18 | 2.66 | YES | 498641 | 763806 | 920681 | Luminescence signal for ATP measurement, day-4 Average (WI-38 cells [1]): 1052285; Luminescence signal for ATP measurement, day-5 Average (WI-38 cells [1]): 1110868; viability at 10 µM (WI-38 cells [1]): 108%; S = Sum of Negative scores ([2]; human): 0; P = Potential DNA-damaging ([3]; human, 24 h): 0; R = Potential DNA damaging ([3]; human, 24 h): 0
7 | Cc1cc(N)n(-c2ccccc2C(=O)O)n1 [Gr-6A] | 0 | 0 | 2 | 1 | 0 | 0 | 117% | 59.9% | 200% | 138% |  | YES | 4.38% | 15.6% | 10.3 | 39.3 | YES | 581273 | 717601 | 804970 | Luminescence signal for ATP measurement, day-4 Average (WI-38 cells [1]): 1007061; Luminescence signal for ATP measurement, day-5 Average (WI-38 cells [1]): 986943; viability at 10 µM (WI-38 cells [1]): 96.1%; S = Sum of Negative scores ([2]; human): 0; P = Potential DNA-damaging ([3]; human, 24 h): 0; R = Potential DNA damaging ([3]; human, 24 h): 0
